Results from patent US20120122860A1, “SOLID FORMS OF SULFONAMIDES AND AMINO ACIDS” (Plexxikon, Inc., priority 2009, published 2012).

Assays:
B-Raf = B-Raf (Homo sapiens, UniProt P15056); test: Kinase activity assay, B-Raf; assay type: biochemical; conditions: read-out: activity toward kinase B-Raf, IC50
B-Raf V600E = B-Raf V600E (Homo sapiens, UniProt P15056, V600E); test: Kinase activity assay, B-Raf V600E; assay type: biochemical; conditions: read-out: activity toward kinase B-Raf V600E, IC50
Sequence of B-Raf V600E (P15056 whole entry V600E): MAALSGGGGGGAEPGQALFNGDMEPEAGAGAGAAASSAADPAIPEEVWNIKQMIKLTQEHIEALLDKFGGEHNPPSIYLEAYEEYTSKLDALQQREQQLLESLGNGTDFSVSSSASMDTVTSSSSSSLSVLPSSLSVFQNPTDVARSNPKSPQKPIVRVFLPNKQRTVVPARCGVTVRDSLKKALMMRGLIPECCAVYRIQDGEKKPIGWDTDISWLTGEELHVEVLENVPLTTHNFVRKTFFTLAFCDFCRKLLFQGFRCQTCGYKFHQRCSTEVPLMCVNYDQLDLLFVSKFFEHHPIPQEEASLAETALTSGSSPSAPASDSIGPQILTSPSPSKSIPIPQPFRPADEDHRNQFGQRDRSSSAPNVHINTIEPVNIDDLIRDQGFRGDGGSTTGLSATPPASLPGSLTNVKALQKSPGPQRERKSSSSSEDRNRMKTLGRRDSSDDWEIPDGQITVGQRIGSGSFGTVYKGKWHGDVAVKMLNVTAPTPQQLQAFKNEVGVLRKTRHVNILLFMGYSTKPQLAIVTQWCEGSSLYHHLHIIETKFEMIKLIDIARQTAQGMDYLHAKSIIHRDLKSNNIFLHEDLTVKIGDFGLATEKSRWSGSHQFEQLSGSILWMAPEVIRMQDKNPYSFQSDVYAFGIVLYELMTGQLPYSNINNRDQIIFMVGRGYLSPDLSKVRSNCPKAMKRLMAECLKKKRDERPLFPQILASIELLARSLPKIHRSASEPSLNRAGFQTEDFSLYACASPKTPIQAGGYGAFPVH

Fms = Fms (Homo sapiens, UniProt P07333); test: Kinase activity assay, Fms
Sequence of Fms (P07333 20-972): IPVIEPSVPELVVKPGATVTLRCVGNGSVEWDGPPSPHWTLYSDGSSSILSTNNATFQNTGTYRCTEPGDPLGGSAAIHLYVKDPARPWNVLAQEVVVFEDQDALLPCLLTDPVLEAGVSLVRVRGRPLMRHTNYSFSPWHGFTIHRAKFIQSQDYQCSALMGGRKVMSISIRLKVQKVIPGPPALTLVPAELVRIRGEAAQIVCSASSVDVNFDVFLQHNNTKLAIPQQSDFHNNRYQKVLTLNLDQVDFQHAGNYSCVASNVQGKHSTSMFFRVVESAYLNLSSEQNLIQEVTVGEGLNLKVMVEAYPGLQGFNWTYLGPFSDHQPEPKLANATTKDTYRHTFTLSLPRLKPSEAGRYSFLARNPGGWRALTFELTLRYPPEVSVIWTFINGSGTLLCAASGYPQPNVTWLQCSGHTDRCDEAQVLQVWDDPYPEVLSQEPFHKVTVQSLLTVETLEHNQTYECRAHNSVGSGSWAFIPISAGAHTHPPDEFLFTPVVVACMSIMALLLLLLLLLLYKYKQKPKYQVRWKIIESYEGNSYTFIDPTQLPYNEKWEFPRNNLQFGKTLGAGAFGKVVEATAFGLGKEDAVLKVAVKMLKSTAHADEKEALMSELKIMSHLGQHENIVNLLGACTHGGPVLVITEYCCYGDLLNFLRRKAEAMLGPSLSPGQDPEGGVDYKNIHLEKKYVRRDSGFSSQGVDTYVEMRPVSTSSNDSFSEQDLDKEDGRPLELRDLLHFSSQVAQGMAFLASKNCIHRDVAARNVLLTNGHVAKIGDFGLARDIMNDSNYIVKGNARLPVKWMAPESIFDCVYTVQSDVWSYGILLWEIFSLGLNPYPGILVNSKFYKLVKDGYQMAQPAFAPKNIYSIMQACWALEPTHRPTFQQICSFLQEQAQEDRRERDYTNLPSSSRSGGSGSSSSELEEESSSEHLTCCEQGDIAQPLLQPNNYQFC

Kdr = Kdr (Homo sapiens, UniProt P35968); test: Kinase activity assay, Kdr
Sequence of Kdr (P35968 20-1356): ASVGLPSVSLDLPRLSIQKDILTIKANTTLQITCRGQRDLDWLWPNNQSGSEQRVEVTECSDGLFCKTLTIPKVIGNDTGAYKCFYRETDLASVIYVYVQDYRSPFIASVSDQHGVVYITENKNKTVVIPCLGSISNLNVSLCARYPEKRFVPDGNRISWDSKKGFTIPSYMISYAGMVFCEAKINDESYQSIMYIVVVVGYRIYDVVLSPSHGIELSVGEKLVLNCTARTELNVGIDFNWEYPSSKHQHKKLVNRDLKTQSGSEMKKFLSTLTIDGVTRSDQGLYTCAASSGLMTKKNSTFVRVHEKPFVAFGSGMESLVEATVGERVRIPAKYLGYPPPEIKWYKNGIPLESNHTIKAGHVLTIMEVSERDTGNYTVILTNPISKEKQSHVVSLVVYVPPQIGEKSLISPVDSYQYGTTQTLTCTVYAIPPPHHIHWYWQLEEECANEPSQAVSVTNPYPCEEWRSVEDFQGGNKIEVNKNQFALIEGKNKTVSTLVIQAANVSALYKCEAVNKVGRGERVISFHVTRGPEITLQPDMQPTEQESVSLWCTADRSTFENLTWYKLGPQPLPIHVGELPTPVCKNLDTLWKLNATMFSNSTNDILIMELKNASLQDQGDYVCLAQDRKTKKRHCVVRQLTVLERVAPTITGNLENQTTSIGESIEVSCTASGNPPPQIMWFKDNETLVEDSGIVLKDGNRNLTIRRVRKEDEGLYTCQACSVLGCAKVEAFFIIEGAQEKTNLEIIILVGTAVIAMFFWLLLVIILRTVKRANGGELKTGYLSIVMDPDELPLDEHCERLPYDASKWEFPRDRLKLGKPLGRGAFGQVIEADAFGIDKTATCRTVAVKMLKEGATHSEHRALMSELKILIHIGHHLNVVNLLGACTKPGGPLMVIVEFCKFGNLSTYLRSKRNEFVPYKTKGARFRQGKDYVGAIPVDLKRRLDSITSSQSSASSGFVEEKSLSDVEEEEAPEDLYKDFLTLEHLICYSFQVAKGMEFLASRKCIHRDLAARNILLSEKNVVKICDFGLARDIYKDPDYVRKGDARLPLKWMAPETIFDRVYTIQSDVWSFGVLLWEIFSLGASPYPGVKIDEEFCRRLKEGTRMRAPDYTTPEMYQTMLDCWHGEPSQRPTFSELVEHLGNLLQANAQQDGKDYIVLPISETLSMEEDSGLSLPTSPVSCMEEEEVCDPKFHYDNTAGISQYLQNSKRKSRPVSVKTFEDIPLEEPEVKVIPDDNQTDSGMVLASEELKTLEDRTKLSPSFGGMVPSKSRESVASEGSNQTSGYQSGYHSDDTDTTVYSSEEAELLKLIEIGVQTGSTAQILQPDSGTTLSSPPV

Kit = Kit (Homo sapiens, UniProt P10721); test: Kinase activity assay, Kit
Sequence of Kit (P10721 26-976): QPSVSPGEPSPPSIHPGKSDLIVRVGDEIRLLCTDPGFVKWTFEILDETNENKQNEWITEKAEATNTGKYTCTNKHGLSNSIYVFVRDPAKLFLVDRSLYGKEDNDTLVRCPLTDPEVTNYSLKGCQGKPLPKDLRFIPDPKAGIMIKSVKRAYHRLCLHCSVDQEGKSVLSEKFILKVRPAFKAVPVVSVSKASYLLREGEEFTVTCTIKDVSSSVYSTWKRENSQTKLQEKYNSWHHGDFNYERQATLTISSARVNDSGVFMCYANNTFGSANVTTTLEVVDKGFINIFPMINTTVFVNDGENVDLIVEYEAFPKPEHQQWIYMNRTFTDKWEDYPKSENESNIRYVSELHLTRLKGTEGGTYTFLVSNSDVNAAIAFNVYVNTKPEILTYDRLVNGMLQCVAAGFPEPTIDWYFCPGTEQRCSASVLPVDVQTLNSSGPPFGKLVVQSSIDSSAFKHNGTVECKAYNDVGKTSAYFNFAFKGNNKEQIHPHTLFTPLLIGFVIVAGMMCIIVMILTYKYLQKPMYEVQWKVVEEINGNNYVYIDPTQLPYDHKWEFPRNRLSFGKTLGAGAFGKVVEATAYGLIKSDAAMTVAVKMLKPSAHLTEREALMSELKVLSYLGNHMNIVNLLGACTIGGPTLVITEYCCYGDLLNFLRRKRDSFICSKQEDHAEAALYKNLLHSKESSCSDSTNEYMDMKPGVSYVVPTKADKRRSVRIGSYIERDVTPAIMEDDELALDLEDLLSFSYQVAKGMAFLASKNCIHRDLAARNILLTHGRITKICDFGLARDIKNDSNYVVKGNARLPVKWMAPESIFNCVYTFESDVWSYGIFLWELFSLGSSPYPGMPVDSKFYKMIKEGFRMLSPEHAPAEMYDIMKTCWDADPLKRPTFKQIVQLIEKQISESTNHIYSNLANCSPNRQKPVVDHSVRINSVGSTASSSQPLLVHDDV

Src = Src (Homo sapiens, UniProt P12931); test: Kinase activity assay, Src
Sequence of Src (P12931 whole entry): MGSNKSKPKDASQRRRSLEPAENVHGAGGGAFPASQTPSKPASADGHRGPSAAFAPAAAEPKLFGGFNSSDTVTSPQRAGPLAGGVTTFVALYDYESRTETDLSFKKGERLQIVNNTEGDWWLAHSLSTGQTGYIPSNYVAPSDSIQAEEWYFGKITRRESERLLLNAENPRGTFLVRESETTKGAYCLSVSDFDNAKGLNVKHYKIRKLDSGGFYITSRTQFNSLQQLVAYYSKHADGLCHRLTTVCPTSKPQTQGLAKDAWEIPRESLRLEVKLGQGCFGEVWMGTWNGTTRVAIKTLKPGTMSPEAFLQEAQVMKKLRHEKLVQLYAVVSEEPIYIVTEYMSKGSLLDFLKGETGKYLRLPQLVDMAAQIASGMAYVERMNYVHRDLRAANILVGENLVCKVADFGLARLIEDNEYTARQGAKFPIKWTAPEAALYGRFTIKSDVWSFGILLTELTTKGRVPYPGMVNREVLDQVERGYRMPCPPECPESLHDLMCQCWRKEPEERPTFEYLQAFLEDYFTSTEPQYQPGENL

C-Raf = C-Raf (Homo sapiens, UniProt P04049); test: Kinase activity assay, C-Raf

Measured: IC50

Sequence of B-Raf (P15056 whole entry): as the sequence (P15056 whole entry V600E) above, with E600V counted along it

CCCS(=O)(=O)Nc1ccc(F)c(C(=O)c2c[nH]c3ncc(-c4ccc(S(=O)(=O)N5CCOCC5)cc4)cc23)c1F [P-2166, Propane-1-sulfonic acid (2,4-difluoro-3-{5-[4-(morpholine-4-sulfonyl)-phenyl]-1H-pyrrolo[2,3-b]pyridine-3-carbonyl}-phenyl)-amide]
≤ 10 µM: all assays above

CC(C)CS(=O)(=O)Nc1ccc(F)c(C(=O)c2c[nH]c3ncc(-c4ccc(F)cc4)cc23)c1F [P-2298, 2-Methyl-propane-1-sulfonic acid {2,4-difluoro-3-[5-(4-fluoro-phenyl)-1H-pyrrolo[2,3-b]pyridine-3-carbonyl]-phenyl}-amide]
not listed: C-Raf
≤ 10 µM: all other assays above

CCCS(=O)(=O)Nc1ccc(F)c(C(=O)c2c[nH]c3ncc(O)cc23)c1F [P-2204, Propane-1-sulfonic acid [2,4-difluoro-3-(5-hydroxy-1H-pyrrolo[2,3-b]pyridine-3-carbonyl)-phenyl]-amide]
not listed: C-Raf
≤ 10 µM: all other assays above

CCS(=O)(=O)Nc1ccc(F)c(C(=O)c2c[nH]c3ncc(Br)cc23)c1F [P-2268, Ethanesulfonic acid [3-(5-bromo-1H-pyrrolo[2,3-b]pyridine-3-carbonyl)-2,4-difluoro-phenyl]-amide]
not listed: C-Raf
≤ 10 µM: all other assays above

CN1CCOc2cc(S(=O)(=O)Nc3ccc(F)c(C(=O)c4c[nH]c5ncc(Cl)cc45)c3F)ccc21 [P-2001, 4-Methyl-3,4-dihydro-2H-benzo[1,4]oxazine-7-sulfonic acid [3-(5-chloro-1H-pyrrolo[2,3-b]pyridine-3-carbonyl)-2,4-difluoro-phenyl]-amide]
not listed: B-Raf V600E
≤ 10 µM: all other assays above

CCCS(=O)(=O)Nc1ccc(F)c(C(=O)c2c[nH]c3ncc(-c4cccnc4F)cc23)c1F [P-2164, Propane-1-sulfonic acid {2,4-difluoro-3-[5-(2-fluoro-pyridin-3-yl)-1H-pyrrolo[2,3-b]pyridine-3-carbonyl]-phenyl}-amide]
not listed: B-Raf | C-Raf
≤ 10 µM: all other assays above

CCCS(=O)(=O)Nc1ccc(F)c(C(=O)c2c[nH]c3ncc(-c4ccc(C)nc4F)cc23)c1F [P-2172, Propane-1-sulfonic acid {2,4-difluoro-3-[5-(2-fluoro-6-methyl-pyridin-3-yl)-1H-pyrrolo[2,3-b]pyridine-3-carbonyl]-phenyl}-amide]
not listed: C-Raf
≤ 10 µM: all other assays above

O=C(c1c(F)ccc(NS(=O)(=O)c2ccc3c(c2)CCO3)c1F)c1c[nH]c2ncc(Cl)cc12 [P-2007, 2,3-Dihydro-benzofuran-5-sulfonic acid [3-(5-chloro-1H-pyrrolo[2,3-b]pyridine-3-carbonyl)-2,4-difluoro-phenyl]-amide]
not listed: Kdr
≤ 10 µM: all other assays above

CCCS(=O)(=O)Nc1ccc(F)c(C(=O)c2c[nH]c3ncc(-c4nccn4C)cc23)c1F [P-2153, Propane-1-sulfonic acid {2,4-difluoro-3-[5-(1-methyl-1H-imidazol-2-yl)-1H-pyrrolo[2,3-b]pyridine-3-carbonyl]-phenyl}-amide]
not listed: C-Raf
≤ 10 µM: all other assays above

CCCS(=O)(=O)Nc1ccc(F)c(C(=O)c2c[nH]c3ncc(-c4cccc(NS(C)(=O)=O)c4)cc23)c1F [P-2169, Propane-1-sulfonic acid {2,4-difluoro-3-[5-(3-methanesulfonylamino-phenyl)-1H-pyrrolo[2,3-b]pyridine-3-carbonyl]-phenyl}-amide]
not listed: B-Raf | C-Raf
≤ 10 µM: all other assays above

Cc1cc(C)cc(S(=O)(=O)Nc2ccc(F)c(C(=O)c3c[nH]c4ncc(Cl)cc34)c2F)c1 [P-2004, N-[3-(5-Chloro-1H-pyrrolo[2,3-b]pyridine-3-carbonyl)-2,4-difluoro-phenyl]-3,5-dimethyl-benzenesulfonamide]
≤ 10 µM: all assays above

CC(C)CS(=O)(=O)Nc1ccc(F)c(C(=O)c2c[nH]c3ncc(Br)cc23)c1F [P-2296, 2-Methyl-propane-1-sulfonic acid [3-(5-bromo-1H-pyrrolo[2,3-b]pyridine-3-carbonyl)-2,4-difluoro-phenyl]-amide]
not listed: B-Raf | C-Raf
≤ 10 µM: all other assays above

CCCS(=O)(=O)Nc1ccc(F)c(C(=O)c2c[nH]c3ncc(-c4ccc(C(=O)NC5CC5)nc4)cc23)c1F [P-2181, 5-{3-[2,6-Difluoro-3-(propane-1-sulfonylamino)-benzoyl]-1H-pyrrolo[2,3-b]pyridin-5-yl}-pyridine-2-carboxylic acid cyclopropylamide]
not listed: C-Raf
≤ 10 µM: all other assays above

CCCS(=O)(=O)Nc1ccc(F)c(C(=O)c2c[nH]c3ncc(-c4ccnn4C)cc23)c1F [P-2175, Propane-1-sulfonic acid {2,4-difluoro-3-[5-(2-methyl-2H-pyrazol-3-yl)-1H-pyrrolo[2,3-b]pyridine-3-carbonyl]-phenyl}-amide]
not listed: C-Raf
≤ 10 µM: all other assays above

Cc1cc(F)ccc1S(=O)(=O)Nc1ccc(F)c(C(=O)c2c[nH]c3ncc(Cl)cc23)c1F [P-2006, N-[3-(5-Chloro-1H-pyrrolo[2,3-b]pyridine-3-carbonyl)-2,4-difluoro-phenyl]-4-fluoro-2-methyl-benzenesulfonamide]
≤ 10 µM: all assays above

CCCS(=O)(=O)Nc1ccc(F)c(C(=O)c2c[nH]c3ncc(-c4ccc(S(=O)(=O)NC)cc4)cc23)c1F [P-2167, 4-{3-[2,6-Difluoro-3-(propane-1-sulfonylamino)-benzoyl]-1H-pyrrolo[2,3-b]pyridin-5-yl}-N-methyl-benzenesulfonamide]
≤ 10 µM: all assays above

CCCS(=O)(=O)Nc1ccc(F)c(C(=O)c2c[nH]c3ncc(-c4ccnc(F)c4)cc23)c1F [P-2192, Propane-1-sulfonic acid {2,4-difluoro-3-[5-(2-fluoro-pyridin-4-yl)-1H-pyrrolo[2,3-b]pyridine-3-carbonyl]-phenyl}-amide]
not listed: C-Raf
≤ 10 µM: all other assays above

O=C(c1c(F)ccc(NS(=O)(=O)CC(F)(F)F)c1F)c1c[nH]c2ncc(Br)cc12 [P-2334, 2,2,2-Trifluoro-ethanesulfonic acid [3-(5-bromo-1H-pyrrolo[2,3-b]pyridine-3-carbonyl)-2,4-difluoro-phenyl]-amide]
not listed: C-Raf
≤ 10 µM: all other assays above

CCCS(=O)(=O)Nc1ccc(F)c(C(=O)c2c[nH]c3ncc(-c4ccc(C(=O)NC)nc4)cc23)c1F [P-2180, 5-{3-[2,6-Difluoro-3-(propane-1-sulfonylamino)-benzoyl]-1H-pyrrolo[2,3-b]pyridin-5-yl}-pyridine-2-carboxylic acid methylamide]
not listed: C-Raf
≤ 10 µM: all other assays above

Cn1cc(-c2cnc3[nH]cc(C(=O)c4cc(NS(=O)(=O)c5ccc(C(F)(F)F)cc5)ccc4F)c3c2)cn1 [P-2104, N-{4-Fluoro-3-[5-(1-methyl-1H-pyrazol-4-yl)-1H-pyrrolo[2,3-b]pyridine-3-carbonyl]-phenyl}-4-trifluoromethyl-benzenesulfonamide]
not listed: C-Raf
≤ 10 µM: all other assays above

O=C(c1c(F)ccc(NS(=O)(=O)CCC(F)(F)F)c1F)c1c[nH]c2ncc(-c3ccc(F)cc3)cc12 [P-2326, 3,3,3-Trifluoro-propane-1-sulfonic acid {2,4-difluoro-3-[5-(4-fluoro-phenyl)-1H-pyrrolo[2,3-b]pyridine-3-carbonyl]-phenyl}-amide]
not listed: C-Raf
≤ 10 µM: all other assays above

CCCS(=O)(=O)Nc1ccc(F)c(C(=O)c2c[nH]c3ncc(-c4ccc(SC)nc4)cc23)c1F [P-2187]
not listed: C-Raf
≤ 10 µM: all other assays above
